According to patent US9358249B2, “Use of Pateamine A for the treatment of age-related muscle wasting” (The Regents of the University of California, priority 2008, dated 2016):

Columns and labels:
[1] = tested on: HCV IRES mediated (eIF4A-independent) translation of firefly luciferase; test: Bicistronic dual-luciferase reporter pcDNA/Ren/HCV/FF in HEK 293 cells, firefly luciferase; assay type: cell-based; conditions: 0-100 μM, 33 hour after transfection
Description: (§1) FIG. 3A: Schematic diagram of the bicistronic dual-luciferase mRNA Ren-HCV-FF. FIG. 3B: Resveratrol inhibits cap-dependent translation initiation of Renilla luciferase but not eIF4A-independent translation of firefly luciferase. HEK 293 cells transfected with plasmid pcDNA/REN/HCV/FF are treated with different concentration of resveratrol (0, 0.1, 1, 10, 50, 100 μM). Translation of reporter genes was measured 33 hour after transfection using the Dual-Glo luciferase assay (Promega) with an Analyst HT plate reader (Molecular Devices).
(§2) One such illustrative assay is shown in Example 1.

[2] = tested on: eukaryotic translation (rabbit reticulocyte lysate system); test: In vitro translation assay, rabbit reticulocyte lysate system, firefly luciferase mRNA; assay type: biochemical; conditions: 100 μM resveratrol
Description: The rabbit reticulocyte lysate system was treated with different concentration of resveratrol (0, 1, 10, 50, 100, 500 μM), and the translation of firefly luciferase mRNA was measured with Promega luciferase assay.
The in vitor translation assay is performed with the rabbit reticulocyte lysate system. We added different concentrations of resveratrol into the in vitor translation reaction, and used the translation of firefly luciferase mRNA as a readout. […] Translation is reduced by >70% at 100 μM resveratrol, the concentration at which we previously detected eIF4A protection in HeLa cell lysate.

[3] = target: T1, eukaryotic initiation factor 4A (eIF4A), yeast (TAP tagged Tif1) (Saccharomyces cerevisiae, UniProt P10081); test: Proteolysis protection of yeast cell lysate proteins by resveratrol (silver staining, mass spectrometry, western blotting); assay type: binding
T1 construct: We performed proteolysis on yeast cell lysates that had been incubated with resveratrol or ethanol; TAP; endogenous in cells; host or cells: yeast cells (lysate); strain expressing TAP-tagged Tif1 for the western blot
T1 sequence (P10081 1-395): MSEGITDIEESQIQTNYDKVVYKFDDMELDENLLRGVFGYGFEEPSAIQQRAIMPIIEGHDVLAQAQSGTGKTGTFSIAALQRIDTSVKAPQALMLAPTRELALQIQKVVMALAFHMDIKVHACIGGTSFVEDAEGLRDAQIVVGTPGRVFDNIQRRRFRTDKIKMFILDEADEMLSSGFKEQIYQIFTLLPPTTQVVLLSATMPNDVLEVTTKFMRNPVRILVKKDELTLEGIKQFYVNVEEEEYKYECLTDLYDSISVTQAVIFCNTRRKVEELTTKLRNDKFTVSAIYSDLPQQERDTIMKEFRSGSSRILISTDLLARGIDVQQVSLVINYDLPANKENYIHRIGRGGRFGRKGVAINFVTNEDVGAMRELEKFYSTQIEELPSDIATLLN
Description: (§3) FIGS. 1A-1C illustrate the identification of eIF4A as the molecular target of resveratrol. FIG. 1A: Chemical structure of resveratrol. FIG. 1B: Lysate from untreated yeast cells or Hela cell were incubated with resveratrol or vehicle for 1 hr at room temperature, followed by proteolysis, SDS-PAGE, and silver staining. Mass spectrometry identifies the protected protein is eIF4A. FIG. 1C: Western blotting confirms the protection of yeast (TAP-tagged Tifi) eIF4A by resveratrol.
We performed proteolysis on yeast cell lysates that had been incubated with resveratrol or ethanol (vehicle control).

[4] = target: T2, human eIF4A (Homo sapiens, UniProt P60842); test: Proteolysis protection in human HeLa cell lysate by resveratrol (western blotting); assay type: binding; conditions: 100 μM resveratrol
T2 construct: endogenous in cells; host or cells: HeLa cell lysate
T2 sequence (P60842 whole entry): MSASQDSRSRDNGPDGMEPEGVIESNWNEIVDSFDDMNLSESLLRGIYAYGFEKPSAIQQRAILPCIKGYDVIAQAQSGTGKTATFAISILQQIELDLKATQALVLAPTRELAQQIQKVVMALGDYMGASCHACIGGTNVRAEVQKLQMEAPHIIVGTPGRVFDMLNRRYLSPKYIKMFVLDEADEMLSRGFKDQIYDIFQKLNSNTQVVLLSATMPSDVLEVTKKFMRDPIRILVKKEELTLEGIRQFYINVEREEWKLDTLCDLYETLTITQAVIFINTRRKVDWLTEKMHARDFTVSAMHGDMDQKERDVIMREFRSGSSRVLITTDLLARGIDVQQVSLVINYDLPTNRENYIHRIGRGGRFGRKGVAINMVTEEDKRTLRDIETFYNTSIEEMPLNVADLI
Description: as §3

[5] = tested on: cap-dependent (eIF4A-requiring) translation of renilla luciferase; test: Bicistronic dual-luciferase reporter pcDNA/Ren/HCV/FF in HEK 293 cells, Renilla luciferase; assay type: cell-based; conditions: 0-100 μM, 33 hour after transfection
Description: as §1, §2

Oc1ccc(C=Cc2cc(O)cc(O)c2)cc1 [resveratrol]
expression of firefly luciferase (HCV IRES) [1]: unaffected | Translation reduced (firefly luciferase signal) [2]: > 70% | eIF4A in protected bands (15 and 25 kDa) after proteolysis, mass spectrometry ([3]; yeast cell lysate incubated with resveratrol vs ethanol vehicle): enriched in the resveratrol-treated sample | protection of yeast (TAP tagged Tif1) eIF4A, western blotting ([3]; yeast lysate, proteolysis): further confirmed by western blotting | protected band after proteolysis, confirmed as human eIF4A by western blotting [4]: protected band of similar size was detected | expression of renilla luciferase (cap-dependent) [5]: inhibited in a dose-dependent manner
